This note sets out measurements from US20130253011A1, “INSECTICIDAL COMPOUNDS” (SYNGENTA PARTICIPATIONS AG, priority 2010, published 2013).

The structures appear in SMILES notation.

Consider `COc1c(-c2cn(-c3c(C(F)(F)F)c(C(F)(F)C(F)(F)F)nn3C)nn2)cccc1N(C)C(=O)c1c(F)cc(F)cc1F`, for which the melting point – broadly, the temperature, or range, at which the solid turns liquid – is 80 to 82 °C.
